Patent publication US9187487B2, “Azaindole derivatives as tyrosine kinase inhibitors” (PRINCIPIA BIOPHARMA, INC., priority 2011, dated 2015)

Each compound was assayed against recombinant JAK3 (catalytic domain, aa 781-1124) (Homo sapiens (Human), UniProt P52333) (assay: JAK3 Caliper Peptide Phosphorylation Assay). Details: fluorescently labeled Srctide substrate 1 uM; ATP at 1×Km (2 uM); 2 hours at 25° C.
Assay type: biochemical
Procedure: JAK3 Caliper Peptide Phosphorylation Assay
Phosphorylation of the appropriate peptide substrate (fluorescently labeled Srctide) by recombinant JAK3 (catalytic domain, aa 781-1124) was measured in the presence and absence of different concentrations of test compounds. Test compound, enzyme, fluorescently labeled substrate, and cofactors (ATP and Mg^2+) were combined in a well of a microtiter plate and incubated for 2 hours at 25° C. The composition of the reaction buffer was 100 mM HEPES pH 7.5, 5 mM MgCl2, 0.01% Triton-X 100, 0.1% Bovine Serum Albumin, and 1% DMSO. Enzyme concentration in the final reaction mixture was 0.5 nM while peptide substrate was at 1 uM. ATP was used at 1×Km concentration corresponding to 2 uM. Serial dilutions (3-fold steps) of compounds were prepared in DMSO. At the end of the incubation, the reaction was stopped by the addition of 20 mM EDTA. Substrate and product (i.e. phosphorylated substrate) were separated electrophoretically and both were quantified by fluorescence intensity using the microfluidics-based LabChip 3000 Drug Discovery System from Caliper Life Sciences. Conversion for each well was calculated and plotted as function of test compound concentration. IC50 value was determined by fitting the data to a 4-parameter logistic model by non-linear regression (XLfit model 205). In every assay, Staurosporine was tested in the same manner as reference compound. Selectivity for JAK3 was determined using commercially available kinase cross-screening services (DiscoveRx, San Diego, Calif.).

Chain of recombinant JAK3 (catalytic domain, aa 781-1124) (P52333 781-1124): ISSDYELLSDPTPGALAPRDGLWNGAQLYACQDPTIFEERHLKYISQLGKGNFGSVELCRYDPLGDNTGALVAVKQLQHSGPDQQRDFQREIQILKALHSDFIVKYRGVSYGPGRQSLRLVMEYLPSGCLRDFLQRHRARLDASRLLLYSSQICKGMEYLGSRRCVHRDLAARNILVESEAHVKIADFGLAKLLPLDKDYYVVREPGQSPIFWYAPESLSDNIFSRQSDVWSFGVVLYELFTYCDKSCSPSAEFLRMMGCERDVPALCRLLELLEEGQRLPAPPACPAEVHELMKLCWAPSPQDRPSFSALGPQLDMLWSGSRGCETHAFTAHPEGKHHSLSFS

Row | Compound | IC50
1 | CN(C)C(=O)C(C#N)=Cc1cccc(-c2ncnc3[nH]ccc23)c1 [compound 1, 3-(3-(7H-pyrrolo[2,3-d]pyrimidin-4-yl)phenyl)-2-cyano-N,N-dimethylacrylamide] | 305 nM
2 | CN(C)C(=O)C(C#N)=Cc1cccc(Nc2ncnc3[nH]ccc23)c1 [compound 3, 3-(3-((7H-pyrrolo[2,3-d]pyrimidin-4-yl)amino)-phenyl)-2-cyano-N,N-dimethylacrylamide] | 150 nM
3 | CN(C)C(=O)C(C#N)=Cc1cccc(N(C)c2ncnc3[nH]ccc23)c1 [compound 4, 2-cyano-N,N-dimethyl-3-(3-(methyl(7H-pyrrolo[2,3-d]pyrimidin-4-yl)amino)phenyl)acrylamide] | > 1000 nM
4 | CN(C)C(=O)C(C#N)=Cc1ccc(Nc2ncnc3[nH]ccc23)cc1 [compound 6, 3-(4-((7H-pyrrolo[2,3-d]pyrimidin-4-yl)amino)-phenyl)-2-cyano-N,N-dimethylacrylamide] | 580 nM
5 | CN(C)C(=O)C(C#N)=Cc1ccc(N(C)c2ncnc3[nH]ccc23)cc1 [compound 7, 2-cyano-N,N-dimethyl-3-(4-(methyl(7H-pyrrolo[2,3-d]pyrimidin-4-yl)amino)phenyl)acrylamide] | > 1000 nM
6 | CN(C)C(=O)C(C#N)=Cc1cccc(Oc2ncnc3[nH]ccc23)c1 [compound 11, 3-(3-((7H-pyrrolo[2,3-d]pyrimidin-4-yl)oxy)phenyl)-2-cyano-N,N-dimethylacrylamide] | > 1000 nM
7 | CN(C)C(=O)C(C#N)=Cc1ccc(Oc2ncnc3[nH]ccc23)cc1 [compound 12, 3-(4-((7H-pyrrolo[2,3-d]pyrimidin-4-yl)oxy)phenyl)-2-cyano-N,N-dimethylacrylamide] | 280 nM
8 | COc1c(C=C(C#N)C(=O)N(C)C)cccc1Nc1ncnc2[nH]ccc12 [compound 15, 3-(3-((7H-pyrrolo[2,3-d]pyrimidin-4-yl)amino)-2-methoxyphenyl)-2-cyano-N,N-dimethylacrylamide] | 2200 nM
9 | Cc1c(C=C(C#N)C(=O)N(C)C)cccc1Nc1ncnc2[nH]ccc12 [compound 16, 3-(3-((7H-pyrrolo[2,3-d]pyrimidin-4-yl)amino)-2-methylphenyl)-2-cyano-N,N-dimethylacrylamide] | 1270 nM
10 | CN(C)C(=O)C(C#N)=Cc1cc(Nc2ncnc3[nH]ccc23)ccc1Cl [compound 17, 3-(5-((7H-pyrrolo[2,3-d]pyrimidin-4-yl)amino)-2-chlorophenyl)-2-cyano-N,N-dimethylacrylamide] | 1770 nM
11 | Cc1ccc(Nc2ncnc3[nH]ccc23)cc1C=C(C#N)C(=O)N(C)C [compound 19, 3-(5-((7H-pyrrolo[2,3-d]pyrimidin-4-yl)amino)-2-methylphenyl)-2-cyano-N,N-dimethylacrylamide] | > 5000 nM
12 | CN(C)C(=O)C(C#N)=Cc1cccc(-c2cnc3[nH]ccc3n2)c1 [compound 27, 3-(3-(5H-pyrrolo[2,3-b]pyrazin-2-yl)phenyl)-2-cyano-N,N-dimethylacrylamide] | > 1000 nM
13 | CN(C)C(=O)C(C#N)=Cc1cccc(Nc2cnc3[nH]ccc3n2)c1 [compound 29, 3-(3-((5H-pyrrolo[2,3-b]pyrazin-2-yl)amino)phenyl)-2-cyano-N,N-dimethylacrylamide] | > 1000 nM
14 | CN(C)C(=O)C(C#N)=Cc1cccc(Oc2cnc3[nH]ccc3n2)c1 [compound 31, 3-(3-((5H-pyrrolo[2,3-b]pyrazin-2-yl)oxy)phenyl)-2-cyano-N,N-dimethylacrylamide] | > 1000 nM
15 | CN(C)C(=O)C(C#N)=Cc1ccc(Oc2cnc3[nH]ccc3n2)cc1 [compound 32, 3-(4-((5H-pyrrolo[2,3-b]pyrazin-2-yl)oxy)phenyl)-2-cyano-N,N-dimethylacrylamide] | 320 nM
16 | CC(C)NC(=O)c1c[nH]c2ncc(-c3cccc(C=C(C#N)C(=O)N(C)C)c3)nc12 [compound 47, 2-(3-(2-cyano-3-(dimethylamino)-3-oxoprop-1-en-1-yl)phenyl)-N-isopropyl-5H-pyrrolo[2,3-b]pyrazine-7-carboxamide] | 13 nM
